How the values were obtained:
NCI-H2122 [1] = test: fitted bottom plateau of viability curve, % of DMSO control; higher = less maximal inhibition; extreme values may be limits of the assay
How it was run: (§1)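 The NCI-H2122, SW837 and NCI-H358 cell lines were plated in 384-well format at 800, 500 and 500 cells/well respectively, in 60 µl. After a 24 h wait, single compounds were applied in dose series by acoustic dispensing, and plates were incubated 72 h, or 144 h in the case of SW837. Readout was CellTiter-Glo luminescence on an EnVision reader following 15 min shaking, normalised to DMSO controls. Both the relative IC50 (a mean over replicates) and the lower plateau derive from a four-parameter nonlinear fit.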

NCI-H358 = test: as above
How it was run: as §1

SW837 [2] = test: as above
How it was run: as §1

NCI-H2122 [3] = test: relative IC50 of cell viability (CellTiter-Glo); higher = less potent
Description: (§2)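 CellTiter-Glo proliferation assay in KRAS G12C mutant NCI-H2122 (72 h), SW837 (144 h) and NCI-H358 cells in 384-well plates. Monotherapy dose response was fitted with a four-parameter curve after normalisation to DMSO controls (% of control, PoC). IC50 is the relative IC50, averaged over replicates. Bottom is the fitted lower plateau in %PoC; Max.Conc. is the top dose tested.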

SW837 [4] = test: as above
Description: as §2

Structure (SMILES) | fitted bottom plateau of viability curve (NCI-H2122 [1]) | fitted bottom plateau of viability curve (NCI-H358) | fitted bottom plateau of viability curve (SW837 [2]) | relative IC50 of cell viability (NCI-H2122 [3]) | relative IC50 of cell viability (SW837 [4])
Cc1c(Cn2c(C)nc3c(C(=O)O)cc(N4CCOCC4)cc32)cccc1C(F)(F)F (top concentration tested 9999.9 nM) | 70.8% | 93.8% | 98.7% |  | 
O=C(C1CC1)N1CC[C@@H](Cn2c(-c3ccc(-c4ccc5occc5c4)cc3)nc3cnccc32)C1 (top concentration tested 9999.9 nM) | 75.1% | 96.6% | 91.7% |  | 
O=c1cc(-c2cccc3c2Sc2ccccc2S3)oc(N2CCOCC2)c1 (top concentration tested 9999.9 nM) | 70.7% | 76.8% | 101% |  | 
CC(C)N(CCCNC(=O)Nc1ccc(C(C)(C)C)cc1)C[C@H]1O[C@@H](n2ccc3c(N)ncnc32)[C@H](O)[C@@H]1O (top concentration tested 50000 nM) | 67.3% | 81.5% | 93.4% |  | 
COc1cc2nc(C)nc(N[C@H](C)c3cc(N)cc(C(F)(F)F)c3)c2cc1O[C@H]1CCOC1 [BI-3406 (SOSi)] (top concentration tested 1000.1 nM) | 69.4% | 82% | 102% |  | 
CC[C@H](Nc1ncnc2[nH]cnc12)c1nc2cccc(F)c2c(=O)n1-c1ccccc1 [Cal-101] (top concentration tested 10000 nM) | 75.5% | 84.2% | 85.3% |  | 
O=P1(N(CCCl)CCCl)NCCCO1 (configuration not stated) [Cyclophosphamide] (top concentration tested 10000 nM) | 88.9% | 99.7% | 87.3% |  | 
C[C@H](Nc1ncnc2nc[nH]c12)c1cc2cccc(Cl)c2c(=O)n1-c1ccccc1 [Duvelisib] (top concentration tested 9999.9 nM) | 56.5% | 61% | 94.1% |  | 
CCCc1cc(C)[nH]c(=O)c1CNC(=O)c1cc(-c2ccnc(N3CCN(C)CC3)c2)cc2c1cnn2C(C)C [GSK343] (top concentration tested 4999.9 nM) | 83.2% | 92.7% | 94.5% |  | 
C[C@H](NC(=O)c1c(N)nn2cccnc12)c1cc2cccc(C#Cc3cnn(C)c3)c2c(=O)n1-c1ccccc1 [IPI-549] (top concentration tested 1000 nM) | 86.2% | 91% | 91.6% |  | 
CS(=O)(=O)CCNCc1ccc(-c2ccc3ncnc(Nc4ccc(OCc5cccc(F)c5)c(Cl)c4)c3c2)o1 [Lapatinib] (top concentration tested 1000 nM) | 77.5% | 58.4% | 92.9% |  | 
CN(Cc1cnc2nc(N)nc(N)c2n1)c1ccc(C(=O)N[C@@H](CCC(=O)O)C(=O)O)cc1 [Methotrexate] (top concentration tested 10000 nM) | 37.4% |  | 31.9% | 7.98 nM | 57 nM
CO[C@@]12[C@H](COC(N)=O)C3=C(C(=O)C(C)=C(N)C3=O)N1C[C@@H]1N[C@@H]12 [Mitomycin C] (top concentration tested 10000 nM) | 2.51% |  | 0.69% | 460 nM | 240 nM
Cn1c(=O)n(-c2ccc(C(C)(C)C#N)cc2)c2c3cc(-c4cnc5ccccc5c4)ccc3ncc21 [NVP-BEZ235] (top concentration tested 999.9 nM) | 9.96% |  | 33.2% | 58.5 nM | 153 nM
COC(=O)c1ccc2c(c1)NC(=O)/C2=C(\Nc1ccc(N(C)C(=O)CN2CCN(C)CC2)cc1)c1ccccc1 [Nintedanib] (top concentration tested 10000 nM) | 50.6% |  | 8.69% | 5990 nM | 2240 nM
O=C(c1cc(Cc2n[nH]c(=O)c3ccccc23)ccc1F)N1CCN(C(=O)C2CC2)CC1 [Olaparib] (top concentration tested 50000 nM) | 63.9% | 56.6% | 88.2% |  | 

From the supplement of paper PMC11424490
